Measurements from publication PMC12582971, “NeuproGemp, a polyphenol-rich botanical formula, ameliorates Alzheimer’s-like pathology in APP/PS1 mice via inhibition of human glutaminyl cyclase” (Frontiers in Pharmacology, 2025).

Biological target: T1, human glutaminyl cyclase (hQC) (Homo sapiens, UniProt Q16769)
T1 construct: covering residues Ala33 to Leu361, was cloned into the pQE-80L expression vector; polyhistidine tag; made in house; host or cells: E. coli BL21 (DE3)
Test: hQC inhibition assay (coupled spectrophotometric, H-Gln-Gln-OH substrate)
Format: biochemical
Settings: for inhibitory effect on hQC (in words): dose-response assay; for IC50: 0.1 μM hQC, 1 mM H-Gln-Gln-OH, 25 °C, pH 8.0, mean ± SD, three experiments, read-out: IC50 against hQC
Method: The coding sequence of human glutaminyl cyclase (hQC), covering residues Ala33 to Leu361, was cloned into the pQE-80L expression vector utilizing the restriction sites BamHI and HindIII. This recombinant plasmid was introduced into E. coli BL21 (DE3) cells through heat shock transformation. For protein expression, the transformed E. coli cells were grown in Luria-Bertani (LB) medium supplemented with 100 mg/L ampicillin at 37 °C. Once the optical density at 600 nm (OD600) reached 0.6, protein expression was induced using 0.1 mM isopropyl β-D-1-thiogalactopyranoside (IPTG), and the culture was incubated at 24 °C for 48 h, optimizing for soluble protein yield under reduced temperature conditions. After induction, the cells were harvested by centrifugation at 6,000 rpm for 20 min. The resulting cell pellet was resuspended in a lysis buffer containing 50 mM Tris-HCl (pH 8.5), 150 mM NaCl, and 20 mM imidazole. Cell disruption was performed using high-pressure homogenization via a microfluidizer (Microfluidics). The lysate was clarified through centrifugation, and the soluble protein fraction was purified using nickel-nitrilotriacetic acid (Ni-NTA) affinity chromatography, leveraging the polyhistidine tag for selective binding to the resin. The bound hQC protein was eluted and further purified using standard chromatographic techniques.
The inhibitory effects of various compounds on human glutaminyl cyclase (hQC) were assessed using a validated spectrophotometric assay. In this assay, glutamic dehydrogenase (EC 1.4.1.3; Sigma-Aldrich) was utilized as a coupling enzyme to indirectly quantify hQC activity, employing H-Gln-Gln-OH (Bachem) as the specific substrate. The reaction mixture consisted of 50 mM Tris-HCl (pH 8.0), 0.25 mM NADH, 30 U of glutamic dehydrogenase, 15 mM α-ketoglutaric acid, and 0.1 μM hQC. Inhibitors were introduced to the reaction mixture and allowed to incubate for 5 min at 25 °C to promote interaction with the enzyme. The enzymatic reaction was initiated by adding 1 mM of the substrate, and the progression was monitored by measuring the absorbance at 340 nm, corresponding to the oxidation of NADH. The IC50 values for the inhibitors were calculated by plotting initial reaction rates against the logarithmic concentrations of the inhibitors. Nonlinear regression fitting was conducted using GraphPad Prism 6 software, enabling accurate quantification of the inhibitors’ potencies and facilitating a detailed analysis of their inhibitory effects on hQC.
The enzymatic activity of recombinant hQC was measured using a coupled spectrophotometric assay with H-Gln-Gln-OH as substrate and glutamic dehydrogenase as a coupling enzyme. […] Initial reaction rates were monitored by measuring NADH oxidation at 340 nm, and IC50 values were calculated using nonlinear regression in GraphPad Prism 6. Data are presented as mean ± SD from three independent experiments. Lower IC50 values indicate stronger inhibition of hQC activity.

T1 sequence (Q16769 33-361): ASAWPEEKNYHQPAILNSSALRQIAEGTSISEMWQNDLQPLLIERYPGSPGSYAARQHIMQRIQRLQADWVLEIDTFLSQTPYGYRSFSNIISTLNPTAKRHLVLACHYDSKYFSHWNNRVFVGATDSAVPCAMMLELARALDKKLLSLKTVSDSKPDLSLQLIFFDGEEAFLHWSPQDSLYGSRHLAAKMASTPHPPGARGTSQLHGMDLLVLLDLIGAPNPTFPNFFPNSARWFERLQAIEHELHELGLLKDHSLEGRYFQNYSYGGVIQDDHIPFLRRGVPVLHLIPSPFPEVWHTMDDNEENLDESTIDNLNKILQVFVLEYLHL

Structure (SMILES)	hQC activity suppression at 100 μM	inhibitory effect on hQC (in words)	IC50 [nM]
C[C@@]12C[C@@]3(O)O[C@@H](O1)[C@]1(COC(=O)c4ccccc4)[C@H]3C[C@@]12O[C@@H]1O[C@H](CO)[C@@H](O)[C@H](O)[C@H]1O [Paeoniflorin]	less than 50%	minimal to no significant inhibition	–
O=C(/C=C/c1ccccc1)OC[C@H]1O[C@@H](OC(=O)c2cc(O)c(O)c(O)c2)[C@H](O)[C@@H](O)[C@@H]1O [1-o-galloyl-6-o-cinnamoylglucose]	less than 50%	minimal to no significant inhibition	–
O=C(OCC1OC(OC(=O)c2cc(O)c(O)c(O)c2)C(O)C(OC(=O)c2cc(O)c(O)c(O)c2)C1O)c1cc(O)c(O)c(O)c1 (stereo not drawn) [GG3, 1,3,6-Trigalloylglucose]	–	only weak inhibitory effects	4190
O=C(OCC1OC(OC(=O)c2cc(O)c(O)c(O)c2)C(OC(=O)c2cc(O)c(O)c(O)c2)C(OC(=O)c2cc(O)c(O)c(O)c2)C1O)c1cc(O)c(O)c(O)c1 (stereo not drawn) [GG4, 1,2,3,6-Tetragalloylglucose]	–	–	1430
OCc1ccc(O[C@@H]2O[C@H](CO)[C@@H](O)[C@H](O)[C@H]2O)cc1 [Gastrodin]	less than 50%	only weak inhibitory effects	–
